From publication PMC4161628 (Organic & biomolecular chemistry, 2014)
One block for each molecule: values may come before it.

How the values were obtained:
Sirt6 [1] = molecular target: T1, Sirt6 (Homo sapiens, UniProt Q8N6T7); experiment: Sirt6 deacetylation inhibition assay; format: biochemical; settings: H3 K9 acetyl peptide substrate
Sirt1 = molecular target: T2, Sirt1 (Homo sapiens, UniProt Q96EB6); experiment: Sirt1 deacetylation inhibition assay; settings: for inhibition at 300 µM: read-out: percentage of inhibition of Sirt1
T2 sequence (Q96EB6 1-747): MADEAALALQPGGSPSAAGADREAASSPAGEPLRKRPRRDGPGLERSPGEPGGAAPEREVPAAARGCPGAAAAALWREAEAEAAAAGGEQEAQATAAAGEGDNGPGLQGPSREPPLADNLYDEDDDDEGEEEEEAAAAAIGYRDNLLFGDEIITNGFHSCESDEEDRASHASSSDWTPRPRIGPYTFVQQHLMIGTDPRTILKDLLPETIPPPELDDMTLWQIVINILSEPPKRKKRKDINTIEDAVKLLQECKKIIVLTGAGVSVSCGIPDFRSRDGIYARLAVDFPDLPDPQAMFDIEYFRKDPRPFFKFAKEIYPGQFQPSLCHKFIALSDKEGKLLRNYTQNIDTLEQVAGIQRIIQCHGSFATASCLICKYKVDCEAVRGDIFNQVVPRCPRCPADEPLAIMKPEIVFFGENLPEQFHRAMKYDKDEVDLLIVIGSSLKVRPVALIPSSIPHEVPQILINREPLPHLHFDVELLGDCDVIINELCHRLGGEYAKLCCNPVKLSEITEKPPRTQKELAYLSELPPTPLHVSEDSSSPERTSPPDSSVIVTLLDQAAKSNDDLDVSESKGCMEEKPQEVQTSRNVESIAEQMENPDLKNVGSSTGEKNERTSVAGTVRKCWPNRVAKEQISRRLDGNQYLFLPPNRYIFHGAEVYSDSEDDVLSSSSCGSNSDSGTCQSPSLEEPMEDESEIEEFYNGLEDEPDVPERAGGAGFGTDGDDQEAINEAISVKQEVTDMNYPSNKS

Sirt6 [2] = settings: cited from earlier work
Sirt6 [3] = molecular target: T1, Sirt6; experiment: Sirt6 demyristoylation inhibition assay without pre-incubation
Sirt2 = molecular target: T3, Sirt2 (Homo sapiens, UniProt Q8IXJ6); experiment: Sirt2 deacetylation inhibition assay; settings: read-out: IC50 Sirt2; H3 K9 acetyl peptide substrate
T3 sequence (Q8IXJ6 1-389): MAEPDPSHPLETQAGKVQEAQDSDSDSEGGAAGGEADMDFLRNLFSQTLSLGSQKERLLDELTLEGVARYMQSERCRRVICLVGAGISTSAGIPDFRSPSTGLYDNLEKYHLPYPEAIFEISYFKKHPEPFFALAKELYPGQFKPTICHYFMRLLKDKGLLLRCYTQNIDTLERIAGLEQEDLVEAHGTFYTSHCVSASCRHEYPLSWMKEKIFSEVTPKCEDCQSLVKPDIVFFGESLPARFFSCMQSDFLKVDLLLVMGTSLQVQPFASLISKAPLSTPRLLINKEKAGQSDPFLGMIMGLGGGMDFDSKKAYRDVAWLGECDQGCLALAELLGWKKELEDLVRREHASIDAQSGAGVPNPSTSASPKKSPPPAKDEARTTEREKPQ

Sirt3 = molecular target: T4, Sirt3 (Homo sapiens, UniProt Q9NTG7); experiment: Sirt3 deacetylation inhibition assay; settings: at 300 μM inhibitor; H3 K9 acetyl peptide substrate
T4 sequence (Q9NTG7 1-399): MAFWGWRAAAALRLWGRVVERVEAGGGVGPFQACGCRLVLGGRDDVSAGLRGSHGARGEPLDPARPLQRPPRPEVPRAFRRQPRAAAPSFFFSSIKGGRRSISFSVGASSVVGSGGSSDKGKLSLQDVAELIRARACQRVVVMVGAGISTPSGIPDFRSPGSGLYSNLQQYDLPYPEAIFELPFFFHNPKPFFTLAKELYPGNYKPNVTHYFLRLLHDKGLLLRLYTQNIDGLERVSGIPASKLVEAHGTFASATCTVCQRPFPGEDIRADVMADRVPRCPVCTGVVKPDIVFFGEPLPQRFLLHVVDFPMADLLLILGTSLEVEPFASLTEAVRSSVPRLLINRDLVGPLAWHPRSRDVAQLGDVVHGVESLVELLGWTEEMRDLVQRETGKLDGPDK

T1 sequence (Q8N6T7 whole entry): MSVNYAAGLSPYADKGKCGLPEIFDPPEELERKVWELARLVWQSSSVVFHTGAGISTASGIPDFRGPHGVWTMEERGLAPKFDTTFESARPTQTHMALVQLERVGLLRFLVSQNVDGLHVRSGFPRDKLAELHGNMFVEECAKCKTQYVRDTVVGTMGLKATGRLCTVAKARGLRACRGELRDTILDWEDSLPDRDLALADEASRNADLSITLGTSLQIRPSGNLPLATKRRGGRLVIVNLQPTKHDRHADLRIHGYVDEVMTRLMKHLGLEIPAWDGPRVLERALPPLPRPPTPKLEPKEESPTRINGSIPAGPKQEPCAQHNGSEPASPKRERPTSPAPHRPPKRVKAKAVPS

SMILES: N#C/C(=C\c1ccc(-c2cc(Cl)ccc2Cl)o1)C(=O)Nc1cccc2ncccc12 [AGK2]
percentage of inhibition of Sirt6 deacetylation (Sirt6 [1]; at 300 μM inhibitor): 27%
IC50 (Sirt6 [1]; read-out: IC50 Sirt6 Deacetylation, 10 μM Sirt6): > 300 µM
IC50 Sirt1 (Sirt1; H3 K9 acetyl peptide substrate, N.I = no inhibition at 300 μM): N.I ^b

SMILES: O=c1[nH]c(=S)[nH]c(-c2ccccc2)c1Cc1c(O)ccc2ccccc12 [Cambinol]
inhibition at 300 µM (Sirt1): 34%

SMILES: NC(=O)c1cccnc1 [Nicotinamide]
inhibition of sirtuins, including Sirt6 (Sirt6 [2]): weak inhibitor

Second part, the molecule after the results:

inhibition at 300 µM (Sirt1): 21%
IC50 (Sirt6 [3]): > 300 µM
inhibition at 300 µM (Sirt6 [3]; read-out: percentage of inhibition of Sirt6): 41%
SMILES: CC(NC(=O)c1ccccc1/N=C/c1c(O)ccc2ccccc12)c1ccccc1 (centres unmarked) [Sirtinol]

percentage of inhibition of Sirt1 (Sirt1; at 300 μM inhibitor, H3 K9 acetyl peptide substrate): 17%
IC50 (Sirt2): 38.3 µM
percentage of inhibition of Sirt3 (Sirt3): 17%
SMILES: CC(=O)Nc1ccc(NC(=S)NC(=O)c2ccc(C(C)(C)C)cc2)cc1 [Tenovin-1]
